The target of test [1] is T1, CXCR4 (Rattus norvegicus, UniProt O08565).
T1 construct: endogenous in cells; host or cells: rat peripheral blood mononuclear cells / lymphocytes (Ficoll-Histopaque isolated)
Briefly: Transwell migration of rat lymphocytes in response to CXCL12. Format: cell-based. The conditions noted are these: CXCL12 100 ng/ml; antibody against CXCR4 10 μg/ml; FIG. 8. On the procedure: Rat peripheral blood cells were loaded on Ficoll-Histopaque gradient (Histopaque-1077-1, Sigma) and the peripheral blood mononuclear cells (PBMC) were isolated. Rat PBMC migration was assessed in 24-well chemotaxis chambers (6.5-mm diameter, 5-μm pore polycarbonate transwell culture insert; Costar, Cambridge, Mass.). 600 μl RPMI 1640 with 1% BSA (migration buffer) with or without 100 ng/ml of CXCL12α (Peprotech) were added to the lower wells, and 2×10^5 cells suspended in 100 μl of RPMI 1640 with 1% BSA were added to the upper wells. After three hours of incubation, the membrane was removed and migrating cells were counted for 1 min using fluorescence activated cell sorting (FACS).
In order to evaluate the effect of the CXCR4 antagonist 4F-benzoyl-TN14003 and neutralizing antibodies to the receptor on the recovery of rat skin, the inventors first tested their ability to inhibit the migration of rat lymphocytes in response to CXCL12. Migration assay was carried out on total rat lymphocytes separated by Ficoll gradient and their migrating ability to medium containing CXCL12 was examined. Lymphocytes were incubated with the CXCR4 antagonist 4F-benzoyl-TN14003, or an antibody against CXCR4 (10 μg/ml).

For test [2], the system named is partial thickness burns in a rat model. Briefly: Rat partial thickness burn wound healing, histological evaluation. Format: in vivo. From the text:
In order to examine the different phases in burn wound healing and the involvement of the chemokine CXCL12 and the receptor CXCR4, the following experiments were done. Wistar female rats were anesthetized and their back was shaved. 1 cm^2 burns were inflicted with a metal rod that has been immersed in a hot boiling water bath and laid on the posterior part of the hip and back for 2-3 seconds. All experiments were approved by the Animal care committee of the Medical Center, Tel-Aviv and the Hebrew University. Heterozygous mice bearing a GFP reporter knocked-in allele to the CX3CR1 locus (Qu et al. 2004) were maintained at the Weizmann Institute of Science Animal Facility, and burns were inflicted as described above. Each group of 3 animals was injected subcutaneously to the burned area with PBS. Animals were sacrificed at the indicated times after burn infliction: 0, 6 hr, 1 day, 3 days, 5 days and 7 days. Histopathological diagnosis was confirmed for each specimen. Histological sections were prepared from formalin-fixed, paraffin-embedded tissues stained with Hematoxylin and Eosin. Evaluation to the level of epithelialization and white blood cells (WBC) in the epidermis and dermis was made to each section by a scale from 1-5. The sections were scored by two independent pathologists.
In other experiments, treated rats were injected subcutaneously to the burned area with one of the following: PBS, mAb against Rat CXCR4 (12G5 clone, R&D Systems Inc., Minneapolis, Minn.), or the small peptide CXCR4 inhibitor 4F-benzoyl-TN14003 (4F-benzoyl-Aig-Arg-Nal-Cys-Tyr-Cit-Lys-DLys-Pro-Tyr-Arg-Cit-Cys-Arg-NH2, SEQ ID NO:52; Tamamura et al., 2003). All animals were sacrificed 120 hr after injury. Histopathological diagnosis was confirmed for each specimen. Histological sections were prepared from formalin-fixed, paraffin-embedded tissues stained with Hematoxylin and Eosin. Evaluation to the level of epithelialization and white blood cells (WBC) in the dermis was made to each section by a scale from 1-5. The grading scale was as follows: 0=No inflammation or epithelialization; 1=Low inflammation or epithelialization; 2=Low to moderate inflammation or epithelialization; 3 Moderate inflammation or epithelialization; 4=High inflammation or epithelialization; 5=Very high inflammation or epithelialization. Each section was evaluated by two independent pathologists.
Next, the inhibitory effect of CXCR4 antagonists on burn wound healing was examined (FIG. 9). Inhibitors were injected subcutaneously to the burned area at 0, 1 day, and 3 days (20 μg per injection), and animals were sacrificed 5 days post burn. […] A small but not significant decrease in the PMN population in the dermis was observed (FIG. 10). […]

Where [3] appears, read: rat burn, 20 μg per injection s.c. at 0, 1 day, 3 days, 5 days post burn, FIG. 11.

Entries after “also recorded” stand apart in the source; their conditions may differ. Bridge positions count the residues as written; N and C are the ends. Square brackets hold non-standard residues; d marks the D form. * marks the point of attachment. 2Nal = N[C@@H](Cc1ccc2ccccc2c1)C(=O)O; Benzoyl(4-F) = O=C(c1ccc(F)cc1)*; Cit = NC(=O)NCCC[C@H](N)C(=O)O

T1 sequence (O08565 whole entry): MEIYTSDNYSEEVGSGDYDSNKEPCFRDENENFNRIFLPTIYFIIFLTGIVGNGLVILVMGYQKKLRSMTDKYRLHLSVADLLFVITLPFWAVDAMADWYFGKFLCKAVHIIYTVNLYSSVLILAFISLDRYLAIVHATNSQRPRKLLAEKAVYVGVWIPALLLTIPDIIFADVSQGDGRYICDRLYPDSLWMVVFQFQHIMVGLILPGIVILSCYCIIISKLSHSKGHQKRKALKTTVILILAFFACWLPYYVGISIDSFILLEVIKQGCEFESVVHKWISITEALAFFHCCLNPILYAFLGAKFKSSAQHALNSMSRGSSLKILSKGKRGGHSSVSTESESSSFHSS

Turning to “4F-benzoyl-Arg-Arg-Nal-Cys-Tyr-Cit-Lys-DLys-Pro-Tyr-Arg-Cit-Cys-Arg-NH2 ({Benzoyl(4-F)}-RR[2Nal]CY[Cit]K[dK]PYR[Cit]CR-NH2; disulfide 4-13 (inferred)) [4F-benzoyl-TN14003]”, in test [1], the “effect on the migration of rat lymphocytes in response to CXCL12” value was “strong inhibitory effect”. Moreover, in test [2] (setting [3]), the “accumulation of PMN cell population in the epidermis” value was “not affected”; the “eosinophil accumulation in the dermis” value is “reduced eosinophilia; also recorded: strong and significant inhibition”. For the same substance, in test [2] (rat burn, 20 μg per injection subcutaneously to the burned area at 0, 1 day, 3 days, sacrificed 5 days post burn, FIG. 9), the epithelialization result is “improved epithelialization; also recorded: increased epithelialization”. The “potency in improving wound healing in vivo, peptide antagonist versus neutralizing mAb” value in test [2] (rat partial thickness burns) was “more potent than the neutralizing mAb”.

For the origin of these results see US9034814B2, “CXCR4 antagonists for wound healing and re-epithelialization” (Hadasit Medical Research Services and Development Ltd., priority 2005, dated 2015).
